US7335481B2, “Methods of identifying compounds that affect a fatty acid cell-surface receptor” (priority 2002, dated 2008)
Read-outs that look alike come from different tables or passages of the source.

What was measured:
[1] = molecular target: T1, FFAR (R10; GPR40) (Homo sapiens, UniProt O14842); experiment: HFF11 reporter cell assay, HFF11.pR10 cells expressing FFAR; assay type: cell-based; parameters: response of the R10 reporter cell line in the initial screening: dose or concentration left out as unconfirmed; conditions: for activation of FFAR: result in words; for response of the R10 reporter cell line in the initial screening: FIG. 1a/1b
T1 construct: expressed in transfected cells; host or cells: HFF11 reporter cells (HeLa-based), line HFF11.pR10
Procedure: Construction of the HFF11 reporter cell lines (successor of the previously described HeLa based cell line, HF1) expressing the orphan GPCRs studied was performed as earlier reported. (Co-pending U.S. application Ser. No. 09/946,334 filed Sep. 21, 2001; Kotarsky et al. 2001.) They contain the reporter plasmid, pcFUS3, where the original promoter region has been extended by 6 NFkB and 6 STAT elements. (Co-pending U.S. application Ser. No. 09/946,334 filed Sep. 21, 2001; Kotarsky et al., unpublished.) On day 1, HFF11 reporter cells, with or without the test […] receptor, were seeded into 96-well plates at 20,000 cells per well in 100 μl growth medium. On day 3, the medium was removed and replaced by 90 μl serum-free medium. Substances (e.g., compounds) and controls were added in the appropriate concentrations 24 h later. Stimulations were performed at 37 degrees C. for 7 h. Cell lysates were assayed in a BMG Lumistar Galaxy luminometer as previously described. (Kotarsky et al., 2001.) Statistical analysis of the drug concentration-response data was carried out with the GraphPad PRISM software package. In the initial screening, reporter cell lines, with or without recombinant test receptors, were challenged with FFAs, such as AA and LA, at […]. Ten cell lines expressing ten “orphan receptors” (one receptor per cell line) were screened. The expressed receptors were labeled R1-R10.

[2] = test system: orphan receptors R1-R9; experiment: HFF11 reporter cell initial screening on the other orphan receptors; assay type: cell-based, human; parameters: dose or concentration left out as unconfirmed; conditions: data not shown
Text: Taken together, this prompted an investigation of these FFAs using a screening approach aimed at identifying potential surface receptors. We used a highly sensitive reporter system (Kotarsky et al., 2001) expressing each of ten different putative human heptahelix receptors, for which the endogenous activating ligands were still unknown (i.e., “orphan receptors”), was used. The receptor sequences were selected from GenBank, based on a reasonably high sequence homology to the receptors for leukotriene B4 (an AA derivative), previously cloned. (Owman et al., 1996; Tryselius et al., 2000.)
Construction of the HFF11 reporter cell lines (successor of the previously described HeLa based cell line, HF1) expressing the orphan GPCRs studied was performed as earlier reported. (Co-pending U.S. application Ser. No. 09/946,334 filed Sep. 21, 2001; Kotarsky et al. 2001.) They contain the reporter plasmid, pcFUS3, where the original promoter region has been extended by 6 NFkB and 6 STAT elements. (Co-pending U.S. application Ser. No. 09/946,334 filed Sep. 21, 2001; Kotarsky et al., unpublished.) On day 1, HFF11 reporter cells, with or without the test heptahelix receptor, were seeded into 96-well plates at 20,000 cells per well in 100 μl growth medium. On day 3, the medium was removed and replaced by 90 μl serum-free medium. […]

[3] = molecular target: T1, FFAR (R10; GPR40); experiment: Aequorin reporter assay (calcium release) in CHO and HeLa cells transiently transfected with R10; assay type: cell-based; conditions: CHO and HeLa cells co-transfected with R10 and aequorin, versus sham-transfected cells, FIG. 2
Procedure: Cells were seeded the day before transfection in a 6-well plate (400,000 cells/well). Then, 0.8 μg of PCDM.AEQ reporter plasmid (Button et al., 1993.) and 1 μg pIRESpuro.R10 receptor plasmid, or pcEGFP for controls, were mixed with 100 μl OptiMEM containing 5 μl per transfection of PLUS reagent. After 15 min., 100 μl OptiMEM and 9 μl (HeLa cells) or 6 μl (CHO cells) of lipofectamine were added and incubated for another 15 min. Then, 800 μl OptiMEM were added, and the cells were washed and incubated with the transfection solution for 5 h. Two days after transfection, cells were loaded with 10 μM coelenterazine and injected into a 96-well plate containing test or control (vehicle) substances. Light emission was recorded for 1 min in a BMG Lumistar Galaxy luminometer and normalized to total emission using […] 100 mM CaCl2 for each well.
Activation of receptor R10 by LA was confirmed by stimulation in two different cell lines, CHO and HeLa, transiently co-transfected with expression vectors containing the R10 ORF (i.e., the gene encoding FFAR) and the calcium-activated photoprotein, aequorin. […] (FIG. 2.)

[4] = FFAR response to free fatty acids, HFF11.pR10 reporter cell line, read-out: Mean EC50
[5] = HFF11 reporter cells expressing FFAR

T1 sequence (O14842 whole entry): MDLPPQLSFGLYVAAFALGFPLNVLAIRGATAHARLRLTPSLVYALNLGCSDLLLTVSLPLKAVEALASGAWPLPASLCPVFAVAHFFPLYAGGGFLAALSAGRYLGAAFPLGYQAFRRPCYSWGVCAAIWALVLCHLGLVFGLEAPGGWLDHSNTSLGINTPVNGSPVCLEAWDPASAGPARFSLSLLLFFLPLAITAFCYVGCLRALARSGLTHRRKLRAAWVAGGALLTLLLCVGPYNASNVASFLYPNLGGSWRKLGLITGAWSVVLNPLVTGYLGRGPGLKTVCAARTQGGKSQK

Row | SMILES | EC50 [1, 4] [µM] | activation of FFAR [1, 5] | also measured
1 | CCCCCCCCCC(=O)O [Capric acid, Decanoic acid] |  |  | EC50 ([1]; concentration response curves, HFF11 reporter cells expressing FFAR, FIG. 3, read-out: EC50): 12.6 µM
2 | CCCCCCC(O)C/C=C/CCCCCCCC(=O)O (stereo not drawn) [Ricinelaidic acid, 12-hydroxy, trans 9-octadecanoic acid] | 20 |  | 
3 | CC(C)(CCCCCCCCCCC(C)(C)CC(=O)O)CC(=O)O [MEDICA 16, 3,3,14,14-tetramethyl-hexadecanedioic acid] |  | strongly activated FFAR | 
4 | CC1(COc2ccc(CC3SC(=O)NC3=O)cc2)CCCCC1 (racemic) [Ciglitazone, (±)-5-[4-(1-methylcyclohexylmethoxy)-benzyl]thiazolidine-2,4-dione] |  | strongly activated FFAR | 
5 | CCCCC/C=C\C/C=C\C/C=C\C/C=C\CCCC(=O)O [arachidonic acid] |  |  | effect on test receptors R1-R9 in the initial screening [2]: no effect; response of the R10 reporter cell line in the initial screening [1]: no effect
6 | CCCCC/C=C\C/C=C\C/C=C\CCCCC(=O)O [γ-Linoleic acid, cis-6, cis-9, cis-12-octadecanoic acid] | 28.5 |  | 
7 | CCCCC/C=C\C=C\C(O)CCCCCCCC(=O)O (racemic) [9-HODE, (±)-9-hydroxy, trans-10, cis-12-octadecanoic acid] | 3.4 | activated FFAR | 
8 | COc1ccc(Cl)cc1C(=O)NCCc1ccc(S(=O)(=O)NC(=O)NC2CCCCC2)cc1 [Glibenclamid, Glibenclamide] |  | inactive | 
9 | CCCC/C=C/CCCCCCCC(=O)O [Myristelaidic acid, trans-9-tetradecenoic acid] | 25 |  | 
10 | CCCCC/C=C\C/C=C\CCCCCCCCCC(=O)O [EDA, cis-11, cis-14- -eicosadienoic acid] | 20 |  | 
11 | CCOC(=O)C(C)(C)Oc1ccc(Cl)cc1 [Clofibrate] |  | inactive | 
12 | CCCCCCC(O)C/C=C\CCCCCCCC(=O)O (stereo not drawn) [Ricinoleic acid, 12-hydroxy, cis 9-octadecenoic acid] | 8 |  | 

Continued, in another order:

Row | EC50 [1, 4] [µM] | activation of FFAR [1, 5] | SMILES | also measured
13 | 120 |  | CCCCCCCC/C=C/CCCCCCCC(=O)O [Elaidic acid, trans-9-octadecanoic acid] | 
14 | 8.9 |  | CCC=CCC=CCC=CCC=CCCCCC(=O)O [Stearidonic acid, cis-6, cis-9, cis-12-15-octadecanoic acid] | 
15 | 100 |  | CCCCCC/C=C\CCCCCCCC(=O)O [Palmitoleic acid, hexadecenoic acid] | 
16 | 8 |  | CCCCCCC(O)CCCCCCCCCCC(=O)O (stereo not drawn) [Hydroxystearic acid, 12-hydroxyoctadecanoic acid] | 
17 |  | able to activate the receptor | CCCCCCCCCCCCCCCCCC(=O)O [stearic acid] | 
18 | 77.3 | activated FFAR | CCCCC/C=C\C=C\CCCCCCCCC(=O)O [CLA, trans-10, cis-12-octadecanoic acid] | 
19 | 143 |  | CCCCCCCCCCCCCCCC(=O)O [Palmitic acid, Hexadecanoic acid] | 
20 | 123 |  | CCCCCCCC/C=C\CCCCCCCC(=O)O [Oleic acid, cis-9-octadecanoic acid] | 
21 | 38.4 |  | CCCCC/C=C\C/C=C\CCCCCCCC(=O)O [Linoleic acid, cis-9, cis-12,-octadecanoic acid] | calcium-mediated luminescence upon stimulation [3]: calcium-mediated luminescence flash; response of the R10 reporter cell line in the initial screening [1]: strong and reproducible response
22 | 22.5 |  | CCCCCCCCCCCC(=O)O [Lauric acid, Dodecanoic acid] | 
